A word on the melting point: it is the temperature, or range, at which the solid turns liquid.

SMILES strings stand for the structures.

`CC1(C)OC(=O)C2(Cc3ccccc3C2)C(=O)O1` displayed a melting point of 158 °C.

Consider `O=C1Cc2c1ccc1ccccc21`, for which the melting point turned out to be 72 °C.

Turning to `CCc1oc2ccccc2c1C(=O)c1cc(Br)c(O)c(Br)c1`, the melting point is 151 °C.

Molecule `CCOC(=O)c1c[nH]c2c(OC(F)(F)F)cccc2c1=O` had a melting point of 235 to 240 °C.

In turn, `O=C(Nc1ccc(Cl)cc1)c1cccnc1Cl` yielded a melting point of 148 to 149 °C.

For the molecule `O=C(O)CNc1ccc(Br)cc1C(=O)O`, the melting point was 211 to 215 °C.

`O=C(Nc1nnc(-c2ccc(Cl)cc2)o1)c1ccc(Cl)cc1` registered a melting point of 278 to 279 °C.

`OCc1ccnc(Cl)c1` had a melting point of 65.5 to 67.5 °C.

`CCC(Br)(CC)C(=O)NC(N)=O` returned a melting point of 118 °C.

On to `CCc1cc(C(F)(F)F)c2c([nH]c3ccccc32)c1CO`, for which the melting point lay in the range of 150 to 153 °C.

Consider `Nc1ccc(C(F)(F)F)cc1`, for which the melting point was 38 °C.

In turn, `CC(C)[C@H](NC(=O)OCC1c2ccccc2-c2ccccc21)C(=O)O` displayed a melting point of 143 to 147 °C.

Take `Cc1c(C)c2c(c(C)c1O)CCC(C)(C(=O)O)O2` (centres undefined): the melting point was 189 °C.

`CCCCC(C(N)=O)n1nnc2ccccc21` (centres undefined) yielded a melting point of 118 °C.

`O=C(O)c1cc(Cl)ccc1Br` yielded a melting point of 154 °C.

`COC(=O)c1cc(C(=O)OC)c(C(=O)OC)cc1C(=O)OC` showed a melting point of 144 °C.

In turn, `COc1cccc2c1ccn2C` yielded a melting point of 89 to 91 °C.

The molecule `CCOC(=O)CC[C@H](NC(=O)c1ccc([N+](=O)[O-])cc1)C(=O)OCC` registered a melting point of 92 to 95 °C.

Take `CCOC(=O)c1c(SC)nn(C(=O)c2cccc(C)c2)c1C`: the melting point was 115 °C.

Regarding `CC1N=C(S)N2C(C)N=C(S)N12` (centres undefined), the melting point is 182 to 184 °C.

As to `Cc1cccc(N/N=C2/C(=O)N(c3ccccc3)N=C2C(F)(F)F)c1`, the melting point was 161 °C.

For `CC1(C)CC2(CC(C)(C)c3cc(O)c(O)cc32)c2cc(O)c(O)cc21`, the melting point worked out at 300 °C.

As to `O=C(O)C12CC3CC(C1)CC(c1ccc([N+](=O)[O-])cc1)(C3)C2`, the melting point lay in the range of 197 to 200 °C.

As to `Nc1ccc(-c2cccs2)nc1`, the melting point lay in the range of 144 to 145 °C.

The molecule `Oc1ccc(-c2nnc3n2NC(c2ccccc2O)S3)cc1` (centres undefined) displayed a melting point of 241 °C.

The molecule `N#Cc1cccc(-c2cccs2)c1` came in with a melting point of 58 to 60 °C.

The molecule `NNc1ncc(C(=O)OCc2ccc(Cl)cc2)c(C(F)(F)F)n1` came in with a melting point of 111 to 113 °C.

For `CCCCC#CCCCCC`, the melting point was -74.1 °C.

`O=C1NC(=S)NC(=O)C1=NNc1ccc(Cl)cc1` registered a melting point of 300 °C.

The molecule `CC1CC(=O)C(C)(C)C1` (centres undefined) registered a melting point of -40.6 °C.

Molecule `Cc1ccc([N+](=O)[O-])c(N)c1C` came in with a melting point of 117 to 122 °C.

In turn, `CCC1CN2CCC3(C(=O)Nc4ccccc43)C2CC1C(=COC)C(=O)OC` (centres undefined) registered a melting point of 216 °C.

Molecule `CC(=O)c1ccc(N2CCCC2)cc1` yielded a melting point of 129 °C.

In turn, `CC12CCC(=O)C=C1C=CC1C2CCC2(C)C1CCC21CCC(=O)O1` (centres undefined) showed a melting point of 150 °C.

Molecule `Nc1nnc(C2CCC2)[nH]1` yielded a melting point of 153 to 155 °C.

Molecule `N#CCc1nc2ccccc2[nH]1` showed a melting point of 210 to 215 °C.

`CCCCC(CC)COP(=O)(Oc1ccccc1)Oc1ccccc1` (centres undefined) had a melting point of -54 °C.

As to `COC(=O)c1c(OC)c(OC)c(OC)c(C(=O)OC)c1C(=O)OC`, the melting point is 84 to 85 °C.

Molecule `CCOc1ccc(F)cc1` yielded a melting point of -8.5 °C.

Molecule `CN(C)C(=O)NC1CCCCCCC1` yielded a melting point of 138 °C.

On to `O=[N+]([O-])OC1COC2C(O)COC12` (centres undefined), for which the melting point is 88 to 93 °C.

Regarding `O=C1NCCCN1`, the melting point is 265 °C.

Consider `Oc1ccc(O)c(O)c1`, for which the melting point came out at 140 °C.

The molecule `Nc1cc(Cl)c(Cl)c(Cl)c1Cl` displayed a melting point of 118 to 119 °C.

`CNCCCN1c2ccccc2CCc2ccccc21` came in with a melting point of 25 °C.

`CCOC(=O)C1=C(C)NC(=O)NC1c1cccc([N+](=O)[O-])c1` (centres undefined) showed a melting point of 228 °C.

In turn, `Cc1nc2cc(Cl)ccc2o1` displayed a melting point of 54 to 57 °C.

`OCc1ccc(Br)cc1F` registered a melting point of 32 °C.

In turn, `CCOC(=O)C1=C(C)NC(=O)NC1c1ccccc1Cl` (centres undefined) came in with a melting point of 217 °C.

With `COc1ccccc1N1CCN(CCCC(=O)c2ccc(F)cc2)CC1`, the melting point is 67.5 °C.

Turning to `CCOC(=O)C1C(C)=NN=C1N` (centres undefined), the melting point is 54 to 56 °C.

Molecule `CCOC(=O)c1cnn(C)c1S(=O)(=O)NC(=O)Nc1nc(OC)cc(OC)n1` yielded a melting point of 182 °C.

`O=C(OC(=O)C(c1ccccc1)c1ccccc1)C(c1ccccc1)c1ccccc1` showed a melting point of 98 °C.

The molecule `Cc1ccc2cc(C)ccc2c1` yielded a melting point of 112 °C.

As to `O=Cc1cc(Br)cc(OC(F)(F)F)c1O`, the melting point turned out to be 46 °C.

`OCCSCCCCCCCCCCSCCO` returned a melting point of 69.5 °C.

In turn, `CC1=NN(c2ccc(Cl)cc2Cl)C(=O)C1C(Cl)C1(Cl)C(=O)N(c2ccc(Cl)cc2Cl)N=C1C` (centres undefined) had a melting point of 110 to 120 °C.

In turn, `Brc1ccc(-c2ccccc2)s1` registered a melting point of 83 to 85 °C.

Molecule `CC=CC=CC=CC=O` returned a melting point of 56.8 °C.

As for `Brc1cccc(-c2cnco2)c1`, the melting point fell in the range of 59 to 61 °C.

Consider `NC(=C(N)c1ccccc1)c1ccccc1`, for which the melting point was 108 °C.

For `CSc1ccc(C(F)(F)F)cc1[N+](=O)[O-]`, the melting point fell in the range of 94 to 96 °C.

In turn, `Cc1c(Cl)cc(-c2ccc(=O)[nH]n2)cc1Cl` registered a melting point of 252 °C.

As to `Clc1ccc(Cc2c(N=Cc3ccc(OCc4ccccc4)cc3)n[nH]c2N=Cc2ccc(OCc3ccccc3)cc2)cc1`, the melting point was 145 to 147 °C.

In the case of `O=C(O)C=Cc1ccc(F)c(C(F)(F)F)c1`, the melting point amounted to 143 °C.

For `Nc1cccc(N2CCOCC2)c1`, the melting point is 118 to 119 °C.

For the molecule `CC1=C2C3OC(=O)C(C)C3CCC2(C)C=CC1=O` (centres undefined), the melting point was found to be 175 °C.

Turning to `O=C(O)CCNC(=O)OCC1c2ccccc2-c2ccccc21`, the melting point lay in the range of 144 to 148 °C.

`COc1ccc(-c2csc(/C(C#N)=C\c3cccnc3)n2)cc1`: the melting point stood at 235 °C.

Consider `O=C(C=Cc1ccccc1)NCCO`, for which the melting point was determined as 101 °C.

As to `CC12CCC(O)CC1=CCC1C2CCC2(C)C1CCC2(O)C#Cc1ccccc1` (centres undefined), the melting point was 162 to 165 °C.

`COc1cccc(O)c1C=O` came in with a melting point of 71 °C.

`COc1ccccc1-c1nnc2n1NC(c1ccc(N(C)C)cc1)S2` (centres undefined): the melting point lay in the range of 228 to 230 °C.

The molecule `Cc1ccccc1C(=O)Cc1ccccc1C(=O)O` returned a melting point of 138 °C.

Take `Cc1nn(Cc2nnc(S)o2)c(C)c1Br`: the melting point is 194 to 195 °C.

In turn, `O=[N+]([O-])c1ccc(Br)c2cccc(C=Nc3ccccc3)c12` showed a melting point of 232 °C.

The molecule `CN(C)c1ccc(N=C2C=CC(=O)C=C2)cc1` displayed a melting point of 134 °C.

Molecule `Cc1cc2c(cc1S(N)(=O)=O)S(=O)(=O)CCC2` showed a melting point of 236 °C.

`N#CC(=CNNc1ccccc1)c1ccccc1` showed a melting point of 155 to 156 °C.

`CCOP(=O)(OCC)On1nnc2ccccc2c1=O`: the melting point worked out at 74 °C.

Take `O=C(O)C=Cc1ccc(O)cc1`: the melting point came out at 214 °C.

For the molecule `O=C(O)C(O)Cc1ccccc1` (centres undefined), the melting point fell in the range of 121 to 125 °C.

Regarding `CCC1(CC)C(=O)NC(=S)NC1=O`, the melting point turned out to be 180 °C.

In turn, `Cc1c(C)c(CCl)c(C)c(C)c1CCl` yielded a melting point of 194 °C.

`COCCCNc1nc(NCCCOC)nc(SC)n1` returned a melting point of 55 °C.

The molecule `CCCCN(CCN(CCCC)C(=O)N1CCOCC1)C(=O)N1CCOCC1` had a melting point of 41.5 °C.

`Fc1cc(Br)ccc1Br` displayed a melting point of 34 °C.

Regarding `CN1CCCN(c2ccc(CO)cc2)CC1`, the melting point is 97 °C.

For the molecule `O=c1[nH]ncc(Cl)c1Cl`, the melting point stood at 202 °C.

In turn, `CC1CCc2ccccc2C1` (centres undefined) had a melting point of -43.1 °C.

As for `CC(=O)Oc1cccc(N=[N+]([O-])c2cccc(OC(C)=O)c2)c1`, the melting point is 102 °C.

With `Sc1nccc(-c2cccs2)n1`, the melting point lay within 206 to 215 °C.

On to `CCCC1COC(Cn2cncn2)(c2ccc(Cl)cc2Cl)O1` (centres undefined), for which the melting point is below 25 °C.

`COc1cc2c(cc1C)C(=O)C2`: the melting point turned out to be 88 °C.

Consider `Nc1ccn(C2CCC(CO)O2)c(=O)n1` (centres undefined), for which the melting point came out at 218 °C.

With `Cc1ccc(C(c2ccc(C)o2)c2cc([N+](=O)[O-])cc(Br)c2O)o1`, the melting point came to 153 °C.

In turn, `O=[N+]([O-])c1cc(I)cc([N+](=O)[O-])c1` gave a melting point of 101 °C.

As to `Cc1cc(-c2onc(C)c2C(=O)Cl)no1`, the melting point stood at 57 °C.

As for `CCOC(=O)C=Cc1ccc(OC)c(OC)c1Cl`, the melting point was in the range of 68 to 69 °C.

In the case of `CC(C)(Oc1ccccc1)C(=O)O`, the melting point came out at 98.5 °C.

For the molecule `Nc1cc(C(F)(F)F)cc(C(F)(F)F)c1Br`, the melting point turned out to be 35 °C.

`O=Cc1cccc(NS(=O)(=O)c2ccccc2)c1`: the melting point was 104 to 108 °C.

As to `CC(C)OP(=O)(CCP(=O)(OC(C)C)OC(C)C)OC(C)C`, the melting point came to 35.5 °C.

Regarding `COC(=O)C1(S(=O)(=O)c2ccccc2)CCCC1`, the melting point turned out to be 56.5 °C.

For `Cc1ccc(S(=O)(=O)C#N)cc1`, the melting point worked out at 48 °C.

Molecule `CCOC(=O)c1c(N)sc(C)c1-c1ccccc1` gave a melting point of 92 to 93 °C.

The molecule `Cc1nn(C)c2sc(C(=O)Cl)cc12` gave a melting point of 165 to 167 °C.

In turn, `Cc1ccc(C(N)=O)cc1[N+](=O)[O-]` showed a melting point of 166 °C.

With `C=CC1(C)CC(OC(=O)CO)C2(C)C(C)CCC3(CCC(=O)C32)C(C)C1O` (centres undefined), the melting point came out at 170 °C.

The record behind these values is a melting point compilation (Tetko et al.).
